Measured values published in patent US11370798B2 (Vertex Pharmaceuticals Incorporated, priority 2012, dated 2022).

Each molecule was assayed on HCT116 colorectal cancer cells (assay: Cisplatin sensitization assay (96 h cell viability MTS)). Settings: compound and Cisplatin added simultaneously, Cisplatin sensitization value.
Assay type: cell-based
How it was run: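 Compound and cisplatin added together as a full matrix of 2-fold serial dilutions from a top final concentration of 10 μM; cells incubated 96 h at 37° C, 5% CO2. Viability then read by MTS after 1 h further incubation; sensitization value reported in μM bins.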
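Note: Test-compound concentration that lowers the Cisplatin IC50 by a set fold.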

SMILES	Cisplatin Sensitization Assay
CN1CCN(c2cc(Cl)ncc2NC(=O)c2c(N)nn3cc(Cl)cnc23)CC1 [I-N-52, 2-amino-6-chloro-N-(6-chloro-4-(4-methylpiperazin-1-yl)pyridin-3-yl)pyrazolo[1,5-a]pyrimidine-3-carboxamide]	++ (Cisplatin sensitization value>0.02 μM but <0.2 μM)
CN1CCN(c2ccncc2NC(=O)c2c(N)nn3cc(Cl)cnc23)CC1(C)C [I-N-53, 2-amino-6-chloro-N-(4-(3,3,4-trimethylpiperazin-1-yl)pyridin-3-yl)pyrazolo[1,5-a]pyrimidine-3-carboxamide]	++ (Cisplatin sensitization value>0.02 μM but <0.2 μM)
CC1CN(c2ccncc2NC(=O)c2c(N)nn3cc(Cl)cnc23)CCN1C (centres unmarked) [I-N-54, 2-amino-6-chloro-N-(4-(3,4-dimethylpiperazin-1-yl)pyridin-3-yl)pyrazolo[1,5-a]pyrimidine-3-carboxamide]	+++ (Cisplatin sensitization value of <0.02 μM)
Nc1nn2cc(Cl)cnc2c1C(=O)Nc1cnccc1N1CCCC(N)C1 (centres unmarked) [I-N-55, 2-amino-N-(4-(3-aminopiperidin-1-yl)pyridin-3-yl)-6-chloropyrazolo[1,5-a]pyrimidine-3-carboxamide]	++ (Cisplatin sensitization value>0.02 μM but <0.2 μM)
Nc1nn2cc(Cl)cnc2c1C(=O)Nc1cnccc1N1CCN2CCC1CC2 [I-N-56, N-(4-(1,4-diazabicyclo[3.2.2]nonan-4-yl)pyridin-3-yl)-2-amino-6-chloropyrazolo[1,5-a]pyrimidine-3-carboxamide]	++ (Cisplatin sensitization value>0.02 μM but <0.2 μM)
Cc1cncc(NC(=O)c2c(N)nn3cc(Cl)cnc23)c1N1CCN(C)CC1 [I-N-57, 2-amino-6-chloro-N-(5-methyl-4-(4-methylpiperazin-1-yl)pyridin-3-yl)pyrazolo[1,5-a]pyrimidine-3-carboxamide]	+++ (Cisplatin sensitization value of <0.02 μM)
Nc1nn2cc(Cl)cnc2c1C(=O)Nc1cnccc1N1CCN(C2COC2)CC1 [I-N-58, 2-amino-6-chloro-N-(4-(4-(oxetan-3-yl)piperazin-1-yl)pyridin-3-yl)pyrazolo[1,5-a]pyrimidine-3-carboxamide]	++ (Cisplatin sensitization value>0.02 μM but <0.2 μM)
CN1CCN(c2ccncc2NC(=O)c2c(N)nn3cc(Cl)cnc23)CC1 [I-N-59, 2-amino-6-chloro-N-(4-(4-methylpiperazin-1-yl)pyridin-3-yl)pyrazolo[1,5-a]pyrimidine-3-carboxamide]	++ (Cisplatin sensitization value>0.02 μM but <0.2 μM)
COCCN1CCN(c2ccncc2NC(=O)c2c(N)nn3cc(Cl)cnc23)CC1 [I-N-60, 2-amino-6-chloro-N-(4-(4-(2-methoxyethyl)piperazin-1-yl)pyridin-3-yl)pyrazolo[1,5-a]pyrimidine-3-carboxamide]	+++ (Cisplatin sensitization value of <0.02 μM)
CN1CCN2CCN(c3ccncc3NC(=O)c3c(N)nn4cc(Cl)cnc34)CC2C1 (centres unmarked) [I-N-61, 2-amino-6-chloro-N-(4-(8-methylhexahydro-1H-pyrazino[1,2-a]pyrazin-2(6H)-yl)pyridin-3-yl)pyrazolo[1,5-a]pyrimidine-3-carboxamide]	+++ (Cisplatin sensitization value of <0.02 μM)
CC1(N2CCN(c3ccncc3NC(=O)c3c(N)nn4cc(F)cnc34)CC2)COC1 [I-N-62, 2-amino-6-fluoro-N-(4-(4-(3-methyloxetan-3-yl)piperazin-1-yl)pyridin-3-yl)pyrazolo[1,5-a]pyrimidine-3-carboxamide]	++ (Cisplatin sensitization value>0.02 μM but <0.2 μM)
CN1CCN(c2ccncc2NC(=O)c2c(N)nn3cc(Cl)cnc23)CC1CO (centres unmarked) [I-N-63, 2-amino-6-chloro-N-(4-(3-(hydroxymethyl)-4-methylpiperazin-1-yl)pyridin-3-yl)pyrazolo[1,5-a]pyrimidine-3-carboxamide]	++ (Cisplatin sensitization value>0.02 μM but <0.2 μM)
Nc1nn2cc(Cl)cnc2c1C(=O)Nc1cnccc1N1CCN(C2CC2)CC1 [I-N-64, 2-amino-6-chloro-N-(4-(4-cyclopropylpiperazin-1-yl)pyridin-3-yl)pyrazolo[1,5-a]pyrimidine-3-carboxamide]	+++ (Cisplatin sensitization value of <0.02 μM)
Nc1nn2cc(Cl)cnc2c1C(=O)Nc1cnccc1N1CCN2CCC[C@@H]2C1 [I-N-65, (R)-2-amino-6-chloro-N-(4-(hexahydropyrrolo[1,2-a]pyrazin-2(1H)-yl)pyridin-3-yl)pyrazolo[1,5-a]pyrimidine-3-carboxamide]	+ (Cisplatin sensitization value>0.2 μM but <5 μM)
CC1(O)CCN(c2ccncc2NC(=O)c2c(N)nn3cc(Cl)cnc23)CC1 [I-N-66, 2-amino-6-chloro-N-(4-(4-hydroxy-4-methylpiperidin-1-yl)pyridin-3-yl)pyrazolo[1,5-a]pyrimidine-3-carboxamide]	+++ (Cisplatin sensitization value of <0.02 μM)
Nc1nn2cc(Cl)cnc2c1C(=O)Nc1cnccc1N1CCN(CC(F)(F)F)CC1 [I-N-67, 2-amino-6-chloro-N-(4-(4-(2,2,2-trifluoroethyl)piperazin-1-yl)pyridin-3-yl)pyrazolo[1,5-a]pyrimidine-3-carboxamide]	+++ (Cisplatin sensitization value of <0.02 μM)
Nc1nn2cc(Cl)cnc2c1C(=O)Nc1cnccc1N1CC[S+]([O-])CC1 [I-N-68, 2-amino-6-chloro-N-(4-(1-oxidothiomorpholino)pyridin-3-yl)pyrazolo[1,5-a]pyrimidine-3-carboxamide]	+++ (Cisplatin sensitization value of <0.02 μM)
CC(C)(O)C1CCN(c2ccncc2NC(=O)c2c(N)nn3cc(Cl)cnc23)CC1 [I-N-69, 2-amino-6-chloro-N-(4-(4-(2-hydroxypropan-2-yl)piperidin-1-yl)pyridin-3-yl)pyrazolo[1,5-a]pyrimidine-3-carboxamide]	+++ (Cisplatin sensitization value of <0.02 μM)
Nc1nn2cc(Cl)cnc2c1C(=O)Nc1cnccc1N1CCNC(C(F)(F)F)C1 (centres unmarked) [I-N-70, 2-amino-6-chloro-N-(4-(3-(trifluoromethyl)piperazin-1-yl)pyridin-3-yl)pyrazolo[1,5-a]pyrimidine-3-carboxamide]	++ (Cisplatin sensitization value>0.02 μM but <0.2 μM)
Nc1nn2cc(Cl)cnc2c1C(=O)Nc1cnccc1N1CCN2CCC[C@H]2C1 [I-N-71, (S)-2-amino-6-chloro-N-(4-(hexahydropyrrolo[1,2-a]pyrazin-2(1H)-yl)pyridin-3-yl)pyrazolo[1,5-a]pyrimidine-3-carboxamide]	+++ (Cisplatin sensitization value of <0.02 μM)
CC1CN(C)CCN1c1ccncc1NC(=O)c1c(N)nn2cc(Cl)cnc12 (centres unmarked) [I-N-72, 2-amino-6-chloro-N-(4-(2,4-dimethylpiperazin-1-yl)pyridin-3-yl)pyrazolo[1,5-a]pyrimidine-3-carboxamide]	+++ (Cisplatin sensitization value of <0.02 μM)
COC1CCN(c2ccncc2NC(=O)c2c(N)nn3cc(Cl)cnc23)CC1 [I-N-73, 2-amino-6-chloro-N-(4-(4-methoxypiperidin-1-yl)pyridin-3-yl)pyrazolo[1,5-a]pyrimidine-3-carboxamide]	+++ (Cisplatin sensitization value of <0.02 μM)
COC(=O)C1CCN(c2ccncc2NC(=O)c2c(N)nn3cc(Cl)cnc23)CC1 [I-N-74, methyl-1-(3-(2-amino-6-chloropyrazolo[1,5-a]pyrimidine-3-carboxamido)pyridin-4-yl)piperidine-4-carboxylate]	+++ (Cisplatin sensitization value of <0.02 μM)
Nc1nn2cc(Cl)cnc2c1C(=O)Nc1cnccc1N1CCn2cncc2C1 [I-N-75, 2-amino-6-chloro-N-(4-(5,6-dihydroimidazo[1,5-a]pyrazin-7(8H)-yl)pyridin-3-yl)pyrazolo[1,5-a]pyrimidine-3-carboxamide]	+++ (Cisplatin sensitization value of <0.02 μM)
CN1CCN(c2ccncc2NC(=O)c2c(N)nn3cc(C(C)(C)C#N)cnc23)CC1 [I-N-76, 2-amino-6-(2-cyanopropan-2-yl)-N-(4-(4-methylpiperazin-1-yl)pyridin-3-yl)pyrazolo[1,5-a]pyrimidine-3-carboxamide]	+++ (Cisplatin sensitization value of <0.02 μM)
N#CCc1cnc2c(C(=O)Nc3cnccc3N3CCCC3)c(N)nn2c1 [I-N-77, 2-amino-6-(cyanomethyl)-N-(4-(pyrrolidin-1-yl)pyridin-3-yl)pyrazolo[1,5-a]pyrimidine-3-carboxamide]	+ (Cisplatin sensitization value>0.2 μM but <5 μM)
N#CCc1cnc2c(C(=O)Nc3cnccc3N3CCCCCC3)c(N)nn2c1 [I-N-79, 2-amino-N-(4-(azepan-1-yl)pyridin-3-yl)-6-(cyanomethyl)pyrazolo[1,5-a]pyrimidine-3-carboxamide]	++ (Cisplatin sensitization value>0.02 μM but <0.2 μM)
CN1CCN(c2c(F)cncc2NC(=O)c2c(N)nn3cc(CC#N)cnc23)CC1 [I-N-80, 2-amino-6-(cyanomethyl)-N-(5-fluoro-4-(4-methylpiperazin-1-yl)pyridin-3-yl)pyrazolo[1,5-a]pyrimidine-3-carboxamide]	++ (Cisplatin sensitization value>0.02 μM but <0.2 μM)
N#CCc1cnc2c(C(=O)Nc3cnccc3N3CCOCC3)c(N)nn2c1 [I-N-81, 2-amino-6-(cyanomethyl)-N-(4-morpholinopyridin-3-yl)pyrazolo[1,5-a]pyrimidine-3-carboxamide]	+++ (Cisplatin sensitization value of <0.02 μM)
